According to patent publication US6447794B2, “Stomach-action molluscicides” (priority 1996, dated 2002):

Experiments:
Helix apersa = experiment: preliminary trials, contact poison on a smooth glass surface; assay type: in vivo, Helix aspersa
Method: (§1) Subsequent trials compared the effective toxicity of methiocarb, metaldehyde bait pellets and ferric EDTA pellets and ferric EDTA bait powder to Helix aspersa and the effective toxicity of ferric EDTA to Deroceras reticulatum. Limited trials were carried out on Theba pisana (the white Italian snail), Cernuella virgata (the vineyard snail), Limax maximus and Cochlicella spp.

Deroceras reticulatum [1] = experiment: as above; assay type: in vivo
Method: as §1

Deroceras reticulatum [2] = conditions: on wet soil after 10 days; cited from earlier work

Row | SMILES | toxicity as a contact poison (Helix apersa) | toxicity as a contact poison (Deroceras reticulatum [1]) | toxicity relative to Iron(III) EDTA (Deroceras reticulatum [2])
1 | O=C([O-])CN(CCN(CC(=O)[O-])CC(=O)[O-])CC(=O)[O-].[Fe+3].[Na+] [ferric EDTA, Ferric sodium EDTA] | toxic | toxic | 
2 | CC(=O)/C=C(/C)[O-].CC(=O)/C=C(/C)[O-].CC(=O)/C=C(/C)[O-].[Fe+3] [Iron(III) 2,4-pentanedionate] |  |  | about twice to three times as toxic
